ChEMBL document CHEMBL1833928, “Metabolism evaluation of the anticancer candidate AC04 by biomimetic oxidative model and rat liver microsomes” (Eur J Med Chem, 2011)

Key:
[1] = tested on: Liver microsomes; assay: Drug metabolism in Wistar rat liver microsomes assessed as 1-oxo-AC04 after 60 mins by LC-MS/MS analysis; type: ADME, Microsome; conditions: 1 h
[2] = tested on: Plasma; assay: Drug metabolism in Wistar rat plasma assessed as 1-oxo-AC04 at 1.5 mg/kg, iv administered as single dose after 120 hrs by LC-MS/MS analysis; type: ADME, organism-based; parameters: dose 1.5 mg/kg, route intravenous; conditions: in vivo
[3] = tested on: CCRF S-180; assay: Antitumor activity against mouse S180 cells xenografted in mouse assessed as reduction of tumor weight at 100 umol/kg/day, ip administered after 48 hrs of tumor inoculation qd for 8 days; type: functional; parameters: scale not given: the % may be the effect or the level left

Drug metabolism [1]: Active
Drug metabolism [2]: Active
SMILES: Cc1ccc(CN2C(=O)S/C(=C\c3c4ccccc4nc4ccccc34)C2=O)cc1
Activity [3]: 85%
